Test [1] relates to T1, periplasmic L-ASNase (PCH199 L-ASNase, type II).
T1 construct: gene ansB; native, purified from periplasm by osmotic shock (ammonium sulfate, Q-Sepharose, Superdex 200)
Description: Nessler ammonia assay at […] nm, non-linear Michaelis-Menten fit. Format: biochemical, Pseudomonas sp. PCH199. To be noted: 0.1-3.0 mM substrate; standard assay 50 mM Tris-HCl pH 8.5, 37 ℃ (temperature of the kinetic run not restated).

The test system is the same in test [2]. As to the kind of experiment: Michaelis-Menten non-linear regression (assay details not told). Format: biochemical, Pseudomonas sp. PCH199. To be noted: 0.02-0.5 mM substrate; assay pH and temperature not stated for L-glutamine.

Structures are written as SMILES.

Take `NC(=O)C[C@H](N)C(=O)O` [L-asparagine]: the Km in test [1] was 164 ± 9 µM.

In the case of `NC(=O)CC[C@H](N)C(=O)O` [L-glutamine], the Km in test [2] came out at 34 µM.

The record behind these values is publication PMC9958223, “Biochemical characterization of extremozyme L-asparaginase from Pseudomonas sp. PCH199 for therapeutics” (AMB Express, 2023).
